Source: PubChem BioAssay AID1963833 (Molecular Pharmacology Branch, DTP, NCI, 2024)

System: 883617-216-R-J1-PDC complex spheroid viability
Test: Anticancer human tumor 883617-216-R-J1-PDC patient-derived bladder carcinoma cell line growth inhibition [POLQ]
Details: for IC50: curve of first compound; for viability, T/C: stronger effect = lower value; active = viability on the fitted dose curve at most 10% of control; inactive = the rest
Summary of the method: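 Complex spheroid viability model combining PDC tumour cells with endothelial (HUVEC) and MSC stromal cells. Novobiocin, ART-558 or RP6685 were tested singly and in combination with standard and investigational anticancer drugs. Each was titrated in half-log steps from near clinical Cmax, or from 10 microM where Cmax was unknown.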

[1] = second compound 0.0316 µM, first compound 0.0316 µM
[2] = second compound 0.0316 µM, first compound 0.1 µM
[3] = second compound 0.0316 µM, first compound 0.316 µM
[4] = second compound 0.0316 µM, first compound 1 µM
[5] = second compound 0.1 µM, first compound 0.0316 µM
[6] = second compound 0.1 µM, first compound 0.1 µM
[7] = second compound 0.1 µM, first compound 0.316 µM
[8] = second compound 0.1 µM, first compound 1 µM
[9] = second compound 0.316 µM, first compound 0.0316 µM
[10] = second compound 0.316 µM, first compound 0.1 µM
[11] = second compound 0.316 µM, first compound 0.316 µM
[12] = second compound 0.316 µM, first compound 1 µM
[13] = second compound 1 µM, first compound 0.0316 µM
[14] = second compound 1 µM, first compound 0.1 µM
[15] = second compound 1 µM, first compound 0.316 µM
[16] = second compound 1 µM, first compound 1 µM
[17] = second compound 3.16 µM, first compound 0.0316 µM
[18] = second compound 3.16 µM, first compound 0.1 µM
[19] = second compound 3.16 µM, first compound 0.316 µM
[20] = second compound 3.16 µM, first compound 1 µM
[21] = second compound 10 µM, first compound 0.0316 µM
[22] = second compound 10 µM, first compound 0.1 µM
[23] = second compound 10 µM, first compound 0.316 µM
[24] = second compound 10 µM, first compound 1 µM
[25] = second compound 0.0316 µM, first compound 0.00316 µM
[26] = second compound 0.0316 µM, first compound 0.01 µM
[27] = second compound 0.1 µM, first compound 0.00316 µM
[28] = second compound 0.1 µM, first compound 0.01 µM
[29] = second compound 0.316 µM, first compound 0.00316 µM
[30] = second compound 0.316 µM, first compound 0.01 µM
[31] = second compound 1 µM, first compound 0.00316 µM
[32] = second compound 1 µM, first compound 0.01 µM
[33] = second compound 3.16 µM, first compound 0.00316 µM
[34] = second compound 3.16 µM, first compound 0.01 µM
[35] = second compound 10 µM, first compound 0.00316 µM
[36] = second compound 10 µM, first compound 0.01 µM
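Note: spheroids exposed to compounds for seven days before readout.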
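Throughout, for viability, T/C: 100% = DMSO vehicle control viability.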

CCCS(=O)(=O)Nc1ccc(F)c(C(=O)c2c[nH]c3ncc(-c4ccc(Cl)cc4)cc23)c1F + Nc1ccc(C#CCN(C(=O)Cc2ncc(C(F)(F)F)cc2C(F)(F)F)c2ccc(F)cc2)nn1
9410 nM: IC50 (second compound 0.0316 µM)
> 10000 nM: IC50 (second compound 0.316 µM) | IC50 (second compound 1 µM) | IC50 (second compound 3.16 µM) | IC50 (second compound 10 µM)
8350 nM: IC50 (second compound 0.1 µM)
inactive: viability, T/C [1] 91.8% | viability, T/C [2] 104% | viability, T/C [3] 91.6% | viability, T/C [4] 102% | viability, T/C (second compound 0.0316 µM, first compound 3.16 µM) 106% | viability, T/C (second compound 0.0316 µM, first compound 10 µM) 47.2% | viability, T/C [5] 98.2% | viability, T/C [6] 86% | viability, T/C [7] 109% | viability, T/C [8] 112% | viability, T/C (second compound 0.1 µM, first compound 3.16 µM) 85% | viability, T/C (second compound 0.1 µM, first compound 10 µM) 43.5% | viability, T/C [9] 104% | viability, T/C [10] 92.8% | viability, T/C [11] 103% | viability, T/C [12] 111% | viability, T/C (second compound 0.316 µM, first compound 3.16 µM) 91.7% | viability, T/C (second compound 0.316 µM, first compound 10 µM) 54.5% | viability, T/C [13] 111% | viability, T/C [14] 103% | viability, T/C [15] 89.2% | viability, T/C [16] 92.4% | viability, T/C (second compound 1 µM, first compound 3.16 µM) 88.7% | viability, T/C (second compound 1 µM, first compound 10 µM) 50.7% | viability, T/C [17] 111% | viability, T/C [18] 102% | viability, T/C [19] 110% | viability, T/C [20] 98.3% | viability, T/C (second compound 3.16 µM, first compound 3.16 µM) 99.6% | viability, T/C (second compound 3.16 µM, first compound 10 µM) 59.7% | viability, T/C [21] 106% | viability, T/C [22] 107% | viability, T/C [23] 118% | viability, T/C [24] 125% | viability, T/C (second compound 10 µM, first compound 3.16 µM) 95.2% | viability, T/C (second compound 10 µM, first compound 10 µM) 57.6%

CC[C@@]1(O)C(=O)OCc2c1cc1n(c2=O)Cc2cc3c(CN(C)C)c(O)ccc3nc2-1 + Nc1ccc(C#CCN(C(=O)Cc2ncc(C(F)(F)F)cc2C(F)(F)F)c2ccc(F)cc2)nn1
> 100 nM: IC50 (second compound 0.0316 µM) | IC50 (second compound 0.1 µM) | IC50 (second compound 0.316 µM) | IC50 (second compound 1 µM) | IC50 (second compound 3.16 µM) | IC50 (second compound 10 µM)
inactive: viability, T/C (second compound 0.0316 µM, first compound 0.000316 µM) 104% | viability, T/C (second compound 0.0316 µM, first compound 0.001 µM) 99.7% | viability, T/C [25] 99.6% | viability, T/C [26] 84.8% | viability, T/C [1] 84.5% | viability, T/C [2] 66.1% | viability, T/C (second compound 0.1 µM, first compound 0.000316 µM) 107% | viability, T/C (second compound 0.1 µM, first compound 0.001 µM) 99.6% | viability, T/C [27] 93.3% | viability, T/C [28] 101% | viability, T/C [5] 85.7% | viability, T/C [6] 68.1% | viability, T/C (second compound 0.316 µM, first compound 0.000316 µM) 97.3% | viability, T/C (second compound 0.316 µM, first compound 0.001 µM) 101% | viability, T/C [29] 89.6% | viability, T/C [30] 81.1% | viability, T/C [9] 87.3% | viability, T/C [10] 80.9% | viability, T/C (second compound 1 µM, first compound 0.000316 µM) 90.2% | viability, T/C (second compound 1 µM, first compound 0.001 µM) 104% | viability, T/C [31] 101% | viability, T/C [32] 100% | viability, T/C [13] 81.5% | viability, T/C [14] 69.7% | viability, T/C (second compound 3.16 µM, first compound 0.000316 µM) 102% | viability, T/C (second compound 3.16 µM, first compound 0.001 µM) 99% | viability, T/C [33] 126% | viability, T/C [34] 102% | viability, T/C [17] 75.1% | viability, T/C [18] 76.6% | viability, T/C (second compound 10 µM, first compound 0.000316 µM) 122% | viability, T/C (second compound 10 µM, first compound 0.001 µM) 119% | viability, T/C [35] 116% | viability, T/C [36] 95% | viability, T/C [21] 91.5% | viability, T/C [22] 91%

CCc1c2c(nc3ccc(O)cc13)-c1cc3c(c(=O)n1C2)COC(=O)[C@]3(O)CC + Nc1ccc(C#CCN(C(=O)Cc2ncc(C(F)(F)F)cc2C(F)(F)F)c2ccc(F)cc2)nn1
278 nM: IC50 (second compound 10 µM)
168 nM: IC50 (second compound 3.16 µM)
inactive: viability, T/C [25] 77.5% | viability, T/C [26] 71% | viability, T/C [1] 59.1% | viability, T/C [2] 51.3% | viability, T/C [3] 40% | viability, T/C [4] 27.1% | viability, T/C [27] 92.6% | viability, T/C [28] 68.3% | viability, T/C [5] 70.8% | viability, T/C [6] 62.3% | viability, T/C [7] 39.5% | viability, T/C [8] 27.9% | viability, T/C [29] 77.5% | viability, T/C [30] 76% | viability, T/C [9] 72.6% | viability, T/C [10] 51% | viability, T/C [11] 46.6% | viability, T/C [12] 26.8% | viability, T/C [31] 86.4% | viability, T/C [32] 82.6% | viability, T/C [13] 59.3% | viability, T/C [14] 50.1% | viability, T/C [15] 40.1% | viability, T/C [16] 31.4% | viability, T/C [33] 94.8% | viability, T/C [34] 84.2% | viability, T/C [17] 71.1% | viability, T/C [18] 52.3% | viability, T/C [19] 45.9% | viability, T/C [20] 27.4% | viability, T/C [35] 93.6% | viability, T/C [36] 89.1% | viability, T/C [21] 78.9% | viability, T/C [22] 59.8% | viability, T/C [23] 51.4% | viability, T/C [24] 34.1%
177 nM: IC50 (second compound 0.316 µM)
169 nM: IC50 (second compound 0.1 µM)
107 nM: IC50 (second compound 0.0316 µM)
90.8 nM: IC50 (second compound 1 µM)
